Test results reported in PMC6661766, “Antimicrobial, antioxidant and cytotoxic evaluation of diazenyl chalcones along with insights to mechanism of interaction by molecular docking studies” (BMC Chemistry, 2019).
Values after ≈ are worked out from the molar mass of the structure shown. Like-named read-outs stand apart in the source and are kept apart here.

Key:
[1] = system: HEK human embryonic kidney cells; set-up: method as in PMID 27302903; settings: cited from earlier work
[2] = system: A549 human lung cancer cell line; test: MTT cytotoxicity assay, A549; type: cell-based; settings: Homo sapiens, A549; MTT, 48 h
Method: (§1) The cell lines employed in the investigation were purchased from the National Centre for Cell Sciences (NCCS), Pune, India. The cell lines were cultured in DMEM fortified with 10% FBS, L-glutamine, sodium bicarbonate, and solution of antibiotics (streptomycin 100 μg ml^−1 + penicillin-100 U ml^−1). The culture of cell lines was stored under 5% CO2 incubation at 37 °C.
(§2) The compounds showing maximum activity (antimicrobial and antioxidant potential) were screened for cytotoxicity against A549 and HEK cell lines using MTT assay. Initially, 96-well microculture plate was seeded with 1 × 10^4 cells in 100 µl/well DMEM/MEM, supplemented with 10% FBS followed by incubation at a temperature of 37 °C for a period of 24 h under 5% CO2 atmosphere. After that, the test compounds and camptothecin were added to the cells to achieve a concentration of 10, 25, 50 and 100 µg. MTT reagent (10 µl) of concentration of 5 mg ml^−1 added to all the wells after the duration of 48 h. The plate was incubated further for 4 h followed by careful removal of supernatant from each well. To dissolve the formazan crystals, 100 µl of DMSO was added, and the ELISA reader was used to check the absorbance at 570 nm wavelength. In order to calculate the IC50 concentration, the following equation, i.e. A = Bx + C, was used. In this case, A = 50, while the values B and C values were obtained from the survival curve plot. This study was carried out in duplicate.

[3] = system: C. albicans; test: Antimicrobial serial tube dilution, MIC and MFC; type: cell-based, Candida albicans MTCC 227
Method: (§3) The synthesized diazenyl chalcones (C18 to C27) and controls (dyes A and E, and chalcone) were assessed for their antimicrobial activity by estimation of MIC and MBC/MFC values. […] The stock solutions of the test compounds and standard drugs having a concentration of 1000 µg ml^−1 were prepared by dissolving the used compounds in DMSO. The nutrient broth/Sabouraud dextrose broth was used for the serial dilution of the test compounds and referenced drugs for bacterial and fungal cultures, respectively. […] The size of the final inoculum in each test tube was taken as 5 × 10^5 CFU ml^−1. The incubation of the test and standard compounds of varying concentrations was done for 24 h at 37 ± 2 °C (bacterial culture) and for 48 h at 37 ± 2 °C (C. albicans) and for 7 d at 25 ± 2 °C (A. fumigatus). The diazenyl chalcones (C18–C27), were further evaluated for their bactericidal/fungicidal activity by estimation of MBC/MFC values. […] For proper mixing of culture media, the plates were shaken gently followed by incubation at the predefined temperature and time as stated earlier, followed by the visual inspection of the plates for signs of microbial growth.

[4] = system: HEK human embryonic kidney cells; test: MTT cytotoxicity assay, HEK; type: cell-based; settings: 48 h
Method: as §1, §2

[5] = system: tested bacterial strains; test: Antimicrobial serial tube dilution, ranges over several bacterial strains; type: cell-based; settings: B. cereus, S. typhi and S. aureus
Method: as §3

[6] = DPPH scavenging antioxidant assay
Method: The derivatives (C18–C27) were assessed for their antioxidant potential in the presence of the stable free radical DPPH using ascorbic acid as the standard compound [36, 37]. […] The total volume of 200 µl was used in each well for each concentration of the test and standard drug containing 0.004 µg DPPH. The assay was performed in triplicate at all concentrations of each sample and standard compound. DPPH solutions in methanol at the same concentration without test drugs were used as the control. Each concentration of the sample and standard has a different blank. To minimize evaporation, the plate was covered with the lid and wrapped in aluminium foil and kept in the dark place in order to protect the DPPH radical from degradation by light and left for 30 min. After 30 min of incubation, the plate was kept in ELISA reader to measure the absorbance values at 517 nm. The experiment was performed in triplicate. The antioxidant activity of each sample was then calculated as per cent inhibition of DPPH according to the following equation: %decolourationofDPPH=ControlAbs-SampleAbs×100/ControlAbs

[7] = system: B. cereus; test: Antimicrobial serial tube dilution, MIC and MBC; type: cell-based, Bacillus cereus MTCC 1305; settings: Bacillus cereus
Method: as §3

[8] = system: B. subtilis; test: Antimicrobial serial tube dilution, MIC and MBC; type: cell-based, Bacillus subtilis MTCC 2063; settings: Bacillus subtilis
Method: as §3

[9] = system: S. aureus; test: Antimicrobial serial tube dilution, MIC and MBC; type: cell-based, Staphylococcus aureus MTCC 2901; settings: Staphylococcus aureus
Method: as §3

[10] = system: E. coli; test: Antimicrobial serial tube dilution, MIC and MBC; type: cell-based, Escherichia coli MTCC 1652
Method: as §3

[11] = system: S. typhi; test: Antimicrobial serial tube dilution, MIC and MBC; type: cell-based, Salmonella typhi MTCC 3216; settings: Salmonella enterica, TYPHI
Method: as §3

[12] = system: A. fumigatus; test: Antimicrobial serial tube dilution, MIC and MFC; type: cell-based, Aspergillus fumigatus MTCC 2584
Method: as §3

[13] = system: fungal strains; test: Antimicrobial serial tube dilution, ranges over fungal strains; type: cell-based; settings: read-out: IC50 against fungal strains
Method: as §3

For `CC[C@@]1(O)C(=O)OCc2c1cc1n(c2=O)Cc2cc3ccccc3nc2-1` [Std, camptothecin, reference compound], the “HEK IC50” value [1] is given as 9.0 [28] µg ml^−1 and the IC50 [2] is given as 8.7 µg/mL (≈ 25 µM).

With `O=C(/C=C\c1ccco1)c1ccc(N=Nc2c(O)cccc2O)cc1` [Compound C-24, (2Z)-1-(4-((2,6-Dihydroxyphenyl)diazenyl)phenyl)-3-(furan-2-yl)prop-2-en-1-one] the MIC ([3]; Candida albicans, 48 h, read-out: C. albicans MIC) was 62.5 µg/mL (≈ 187 µM), the MFC ([3]; Candida albicans, read-out: C. albicans MFC) was 125 µg/mL (≈ 374 µM) and the IC50 [4] was 280.4 ± 1.21 µg/mL (≈ 839 µM). It also gave a melting point of 315 to 317 °C, an MBC range [5] of 15.62 to 31.25 µg/mL and an MIC range [5] of 7.81 to 15.62 µg/mL. For the same compound, the “IC50 DPPH” value [6] was 15.88 µg/mL (≈ 47.5 µM), the “% inhibition of DPPH” value ([6]; 1.56 µg ml^−1) was 24.16% and the “% inhibition of DPPH” value ([6]; 3.12 µg ml^−1) was 26.13%. For the same compound, the “% inhibition of DPPH” value ([6]; 6.25 µg ml^−1) was 34.65%, the “% inhibition of DPPH” value ([6]; 12.5 µg ml^−1) was 54.71% and the “% inhibition of DPPH” value ([6]; 25 µg ml^−1) was 77.38%. The “% inhibition of DPPH” value ([6]; 50 µg ml^−1) was 96.46%, the “% inhibition of DPPH” value ([6]; 100 µg ml^−1) was 99.17% and the “log IC50 DPPH” value ([6]; Fig. 1) was 1.201. It also gave an MIC ([7]; 24 h, read-out: B. cereus MIC) of 15.6 µg/mL (≈ 46.7 µM), an MBC ([7]; read-out: B. cereus MBC) of 15.6 µg/mL (≈ 46.7 µM) and an MIC ([8]; 24 h, read-out: B. subtilis MIC) of 31.2 µg/mL (≈ 93.5 µM). It also gave an MBC ([8]; read-out: B. subtilis MBC) of 62.5 µg/mL (≈ 187 µM), an MIC ([9]; 24 h, read-out: S. aureus MIC) of 15.6 µg/mL (≈ 46.7 µM) and an MBC ([9]; read-out: S. aureus MBC) of 15.6 µg/mL (≈ 46.7 µM). The “E. coli MIC” value ([10]; 24 h at 37 ± 2 °C) was 15.62 µg/mL, the MIC ([10]; Escherichia coli, 24 h, read-out: E. coli MIC, 24 h at 37 ± 2 °C) was 7.81 to 15.6 µg/mL (≈ 23.4 to 46.7 µM) and the MBC ([10]; Escherichia coli, read-out: E. coli MBC) was 31.2 µg/mL (≈ 93.5 µM). It also gave an IC50 [2] of 109 ± 3.21 µg/mL (≈ 326 µM), an MIC ([11]; 24 h, read-out: S. typhi MIC) of 7.58 µg/mL (≈ 22.7 µM) and an MBC ([11]; read-out: S. typhi MBC) of 15.6 µg/mL (≈ 46.7 µM). The MIC ([12]; Aspergillus fumigatus, 168 h, read-out: A. fumigatus MIC) was 125 µg/mL (≈ 374 µM) and the MFC ([12]; Aspergillus fumigatus, read-out: A. fumigatus MFC) was 125 µg/mL (≈ 374 µM).

For `OC(Cn1cncn1)(Cn1cncn1)c1ccc(F)cc1F` [Fluconazole, fluconazole, reference compound], the MIC ([3]; Candida albicans; 48 h at 37 ± 2 °C; read-out: C. albicans MIC) was 7.81 µg/mL (≈ 25.5 µM), the MFC ([3]; Candida albicans; read-out: C. albicans MFC) was 31.2 µg/mL (≈ 102 µM) and the IC50 [13] was 7.81 to 15.6 µg/mL (≈ 25.5 to 51 µM). It also gave an MIC ([12]; Aspergillus fumigatus, 168 h; 7 d at 25 ± 2 °C; read-out: A. fumigatus MIC) of 15.6 µg/mL (≈ 51 µM) and an MFC ([12]; Aspergillus fumigatus; read-out: A. fumigatus MFC) of 125 µg/mL (≈ 408 µM).
